According to patent US10576082B2, “ErbB2 regulates autophagic flux to modulate the proteostasis of APP-CTFs in alzheimer's disease” (Academia Sinica, priority 2016, dated 2020):

Tested on: IMR32 neuroblastoma cells overexpressing C99-YFP
Assay: Western blotting of IMR32 cells overexpressing C99-YFP
Type: cell-based, human
Settings: compound 1 μM, 37° C., 24 h
Protocol: (A) IMR32 cells overexpressing C99-YFP were grown with 2 ml fresh culture medium in 6-well plates, and treated with 1 μM CL-387,785 or DAPT at 37° C. for 24 h. The cell extracts were analyzed by Western blotting. (B) Conditional media were harvested and processed for determination of secreted Aβ40 using a colorimetric Aβ40-specific ELISA kit. (C) C99-YFP-expressing IMR32 cells (160,000 cells/well) were seeded onto 6-well plates and cultured at 37° C. for 24 h, and infected with ErbB1- or ErbB2-targeting shRNA lentivirus for an additional 48 h. Infection mixtures were replaced with 2 ml fresh culture medium, and infected cells were then incubated at 37° C. for an additional 24 h. The cell extracts were analyzed by Western blotting with anti-GFP antibody. (D) The conditioned media were harvested and processed for determination of secreted Aβ40. Data are the mean±SD from three independent experiments, and were analyzed by Student's t-tests. * p<0.05. […]
Preparation of cell extracts. […] Following the removal of cell debris by centrifugation, clarified lysates were processed for immunoprecipitation, Western blotting, or quantification of BCA protein content.
Western blotting analysis. Protein concentration was measured with the BCA Protein Assay Kit (Pierce). […] Quantitative analyses of blot images were processed using Image J software (NIH) to determine the relative densities of immunoreactive bands.

With `CC#CC(=O)Nc1ccc2ncnc(Nc3cccc(Br)c3)c2c1` [CL-387,785, N-[4-[(3-bromophenyl)amino]-6-quinazolinyl]-2-butynamide] as the compound, how does the “level of AICD” value read?
The value was “significantly reduced”.

What about the “level of C99” value of the same compound?
The value was “significantly reduced”.
